Test system: rats
Assay: Induction of diabetes by intravenous streptozotocin
Type: in vivo, rat
Conditions: 50 mg/kg intravenous injection
Experimental: Diabetes was induced by intravenous injection with 50 mg/kg streptozotocin (STZ), which reduced pancreatic insulin content by 95%. One week later, STZ diabetic rats (of weight 200–250 g) were administered either the vehicle alone as a control (labeled CON in FIG. 1), or were administered a combination of human gastrin 17 (4 μg/kg) and human TGFα (4 μg/kg) peptides (labeled GAS/TGF) by once-daily, intraperitoneal injections for 12 days. At 1, 2, 4 and 8 weeks after treatment, intraperitoneal glucose tolerance tests (IPGTT) were performed, to measure both blood glucose levels, and plasma insulin levels, in response to a challenge amount of glucose.

CN(N=O)C(=O)N[C@H]1C(O)O[C@H](CO)[C@@H](O)[C@@H]1O (mixture of isomers) [streptozotocin]
reduction of pancreatic insulin content: 95%
